pIC50: −log10 of the molar value.
Assays:
[1] = target: T1, CDK4/cyclin D3 (Homo sapiens, UniProt P11802); experiment: Human CDK4/cyclin D3 inhibitory activity (QS S Assist CDK4/Cyclin D3_FP Kit, IMAP fluorescent polarization); type: biochemical; settings: read-out: CDK4 Activity symbol
T1 construct: purchased Carna Biosciences, Inc. QS S Assist CDK4/Cyclin D3_FP Kit
Summary of the method: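 Kinase reactions used kit CDK4/cyclin D3 at 12.5–25 ng/well with the kit ATP/substrate/metal mix in 20 mM HEPES (pH 7.4), 0.01% Tween20 and 2 mM DTT, run 45 min at room temperature. Phosphorylation was detected by IMAP fluorescence polarization (ex 485/em 535 nm) after 30 min binding in the dark. IC50 was fitted from percent inhibition against DMSO controls with and without enzyme.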

[2] = target: T2, CDK2/cyclin A2 (Homo sapiens, UniProt P24941); experiment: Human CDK2/cyclin A2 inhibitory activity (QS S Assist CDK2/Cyclin A2_FP Kit, IMAP fluorescent polarization); type: biochemical; settings: read-out: CDK2 Activity symbol
T2 construct: purchased Carna Biosciences, Inc. QS S Assist CDK2/Cyclin A2_FP Kit
Summary of the method: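 Kit CDK2/cyclin A2 (2.5 ng/well) was reacted with kit ATP/substrate/metal in 20 mM HEPES pH 7.4, 0.01% Tween 20 and 2 mM DTT for 60 min at room temperature. IMAP binding reagent was added for 30 min, then fluorescence polarization was read at 485/535 nm. IC50 came from dose-response fitting of percent inhibition.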

T1 sequence (P11802 whole entry): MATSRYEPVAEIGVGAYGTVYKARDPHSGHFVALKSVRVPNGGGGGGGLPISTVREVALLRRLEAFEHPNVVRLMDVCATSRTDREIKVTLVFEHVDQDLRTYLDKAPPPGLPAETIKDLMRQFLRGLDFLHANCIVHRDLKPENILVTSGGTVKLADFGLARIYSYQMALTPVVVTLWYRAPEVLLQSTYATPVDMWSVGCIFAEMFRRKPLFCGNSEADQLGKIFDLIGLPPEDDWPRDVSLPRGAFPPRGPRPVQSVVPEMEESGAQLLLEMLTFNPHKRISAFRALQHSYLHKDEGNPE
T1 sequence (P30281 whole entry partner): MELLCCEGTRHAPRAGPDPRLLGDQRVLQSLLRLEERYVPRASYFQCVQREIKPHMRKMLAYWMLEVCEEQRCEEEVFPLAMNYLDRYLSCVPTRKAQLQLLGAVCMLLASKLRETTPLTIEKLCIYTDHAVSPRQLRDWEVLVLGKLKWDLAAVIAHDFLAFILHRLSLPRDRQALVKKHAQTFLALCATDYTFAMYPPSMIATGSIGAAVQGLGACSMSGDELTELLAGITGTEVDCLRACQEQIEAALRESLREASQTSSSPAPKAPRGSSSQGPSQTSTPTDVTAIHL

pIC50 [1] | pIC50 [2] | SMILES
> 8.00 | ≤ 7.00 | C[C@@H](O)c1cc2cnc(Nc3ccc(N4CCN(C)CC4)nn3)nc2c(N2CCCCC2)n1 [Compound 123, (R)-1-(2-((6-(4-methylpiperazin-1-yl)pyridazin-3-yl)amino)-8-(piperidin-1-yl)pyrido[3,4-d]pyrimidin-6-yl)ethanol]
> 8.00 | ≤ 7.00 | C[C@@H](O)c1cc2cnc(Nc3ccc(N4CCN(C)CC4)nn3)nc2c(N2CCC(F)CC2)n1 [Compound 124]
7.00 to 8.00 | ≤ 7.00 | CO[C@H](C)c1cc2cnc(Nc3ccc(N4CCN(C)CC4)nn3)nc2c(N2CCC(F)CC2)n1 [Compound 125]
> 8.00 | ≤ 7.00 | CO[C@H](C)c1cc2cnc(Nc3ccc(N4CCNCC4)nn3)nc2c(N2CCC(F)CC2)n1 [Compound 126]
> 8.00 | ≤ 7.00 | C[C@@H](O)c1cc2cnc(Nc3ccc(N4CCCNCC4=O)cn3)nc2c(N2CCCCC2)n1 [Compound 127]
> 8.00 | ≤ 7.00 | OCCN1CCN(Cc2ccc(Nc3ncc4cc(C(F)F)nc(N5CCCCC5)c4n3)nc2)CC1 [Compound 128]
> 8.00 | ≤ 7.00 | OCCN1CCN(Cc2ccc(Nc3ncc4cc(C(F)F)nc(N5CCC(O)CC5)c4n3)nc2)CC1 [Compound 129]
> 8.00 | ≤ 7.00 | C[C@@H](O)c1cc2cnc(Nc3ccc4c(n3)CCN(CCCO)C4)nc2c(N2CCCCC2)n1 [Compound 130]
7.00 to 8.00 | ≤ 7.00 | C[C@@H](O)c1cc2cnc(Nc3ccc(O[C@H]4CCN(CCO)C[C@@H]4F)cn3)nc2c(N2CCCCC2)n1 [Compound 131]
> 8.00 | ≤ 7.00 | C[C@@H](O)c1cc2cnc(Nc3ccc(O[C@@H]4CCN(CCO)C[C@@H]4F)cn3)nc2c(N2CCCCC2)n1 [Compound 132]
7.00 to 8.00 | ≤ 7.00 | C[C@@H](O)c1cc2cnc(Nc3ccc(CN4CCN(C)CC4)cn3)nc2c(N2CC(F)(F)C2)n1 [Compound 133]
> 8.00 | ≤ 7.00 | OCCN1CCc2nc(Nc3ncc4cc(CO)nc(N5CCCCC5)c4n3)ccc2C1 [Compound 135]
> 8.00 | ≤ 7.00 | CC(O)c1cc2cnc(Nc3ccc(CN4CCN(C)CC4)cn3)nc2c(N2CCCC2C)n1 (stereo not drawn) [Compound 136]
7.00 to 8.00 | ≤ 7.00 | C[C@@H](O)c1cc2cnc(Nc3ccc(CN4CCN(C)CC4)cn3)nc2c(N2CCC[C@@H]2C)n1 [Compound 137]
> 8.00 | ≤ 7.00 | C[C@@H]1CCN(c2nc([C@@H](C)O)cc3cnc(Nc4ccc(CN5CCN(C)CC5)cn4)nc23)C1 [Compound 138]
> 8.00 | ≤ 7.00 | C[C@H]1CCN(c2nc([C@@H](C)O)cc3cnc(Nc4ccc(CN5CCN(C)CC5)cn4)nc23)C1 [Compound 139]
> 8.00 | ≤ 7.00 | CC1CCC(C)N1c1nc([C@@H](C)O)cc2cnc(Nc3ccc(CN4CCN(C)CC4)cn3)nc12 (stereo partly drawn) [Compound 140]
> 8.00 | ≤ 7.00 | CC1CN(c2nc([C@@H](C)O)cc3cnc(Nc4ccc(CN5CCN(C)CC5)cn4)nc23)CC1C (stereo partly drawn) [Compound 141]
> 8.00 | ≤ 7.00 | C[C@@H](O)c1cc2cnc(Nc3ccc(CN4CCN(C)CC4)cn3)nc2c(N2CCC(C)(C)C2)n1 [Compound 142]
> 8.00 | ≤ 7.00 | C[C@@H](O)c1cc2cnc(Nc3ccc(CN4CCN(C)CC4)cn3)nc2c(N2CCC(C(F)(F)F)CC2)n1 [Compound 144]
7.00 to 8.00 | ≤ 7.00 | C[C@@H](O)c1cc2cnc(Nc3ccc(CN4CCN(C)CC4)cn3)nc2c(N2CCOCC2)n1 [Compound 145]
> 8.00 | ≤ 7.00 | CCC(O)c1cc2cnc(Nc3ccc(CN4CCN(C)CC4)cn3)nc2c(N2CCCCC2)n1 (stereo not drawn) [Compound 146]
> 8.00 | ≤ 7.00 | C[C@@H](O)c1cc2cnc(Nc3ccc4c(n3)CCN(C(=O)C3CCNCC3)C4)nc2c(N2CCCCC2)n1 [Compound 147]

SMILES | pIC50 [1] | pIC50 [2]
C[C@@H](O)c1cc2cnc(Nc3ccc(CN4CCN(C)CC4)cn3)nc2c(N2C3CCC2CC3)n1 [Compound 143] | > 8.00 | ≤ 7.00
